Like-named read-outs stand apart in the source and are kept apart here.
Assays:
kinase enzymes [1] = molecular target: T1, kinase enzymes (Homo sapiens, UniProt P42345); assay: Enzyme binding assay (KINOMEscan, DiscoveRx), further kinases of Table A; settings: MTOR_h
T1 construct: purchased DiscoveRx Corporation, San Diego (contract service, KINOMEscan)
Outline: (§1)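 Compounds were profiled by KINOMEscan to obtain kinase binding affinities.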

kinase enzymes [2] = molecular target: T2, kinase enzymes (Homo sapiens, UniProt P42336); assay: as above; settings: PIK3Cα_h
T2 construct: purchased DiscoveRx Corporation, San Diego (contract service, KINOMEscan)
Outline: as §1

kinase enzymes [3] = molecular target: T3, kinase enzymes (Homo sapiens, UniProt P48736); assay: as above; settings: PIK3Cγ_h
T3 construct: purchased DiscoveRx Corporation, San Diego (contract service, KINOMEscan)
Outline: as §1

[4] = tested on: Akt phosphorylated at Thr308 in PC-3 cells; assay: Cellular assay: phosphorylation of Akt at Thr308 in PC-3 cells (MSD ELISA); assay type: cell-based; settings: PC-3 cells, 60 min compound incubation, MSD ELISA, read-out: IC50 pAkt_Thr308
Outline: (§2)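 Phospho-Akt in whole-cell lysates is quantified by electrochemiluminescent immunoassay using phospho-site capture and total-Akt detection antibodies.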

PI3Kδ = molecular target: T4, PI3Kδ (Homo sapiens, UniProt O00329); assay: Enzyme binding assay (KINOMEscan, DiscoveRx); settings: PIK3Cδ_h
T4 construct: purchased DiscoveRx Corporation, San Diego (contract service, KINOMEscan)
T4 sequence (O00329 1-1044): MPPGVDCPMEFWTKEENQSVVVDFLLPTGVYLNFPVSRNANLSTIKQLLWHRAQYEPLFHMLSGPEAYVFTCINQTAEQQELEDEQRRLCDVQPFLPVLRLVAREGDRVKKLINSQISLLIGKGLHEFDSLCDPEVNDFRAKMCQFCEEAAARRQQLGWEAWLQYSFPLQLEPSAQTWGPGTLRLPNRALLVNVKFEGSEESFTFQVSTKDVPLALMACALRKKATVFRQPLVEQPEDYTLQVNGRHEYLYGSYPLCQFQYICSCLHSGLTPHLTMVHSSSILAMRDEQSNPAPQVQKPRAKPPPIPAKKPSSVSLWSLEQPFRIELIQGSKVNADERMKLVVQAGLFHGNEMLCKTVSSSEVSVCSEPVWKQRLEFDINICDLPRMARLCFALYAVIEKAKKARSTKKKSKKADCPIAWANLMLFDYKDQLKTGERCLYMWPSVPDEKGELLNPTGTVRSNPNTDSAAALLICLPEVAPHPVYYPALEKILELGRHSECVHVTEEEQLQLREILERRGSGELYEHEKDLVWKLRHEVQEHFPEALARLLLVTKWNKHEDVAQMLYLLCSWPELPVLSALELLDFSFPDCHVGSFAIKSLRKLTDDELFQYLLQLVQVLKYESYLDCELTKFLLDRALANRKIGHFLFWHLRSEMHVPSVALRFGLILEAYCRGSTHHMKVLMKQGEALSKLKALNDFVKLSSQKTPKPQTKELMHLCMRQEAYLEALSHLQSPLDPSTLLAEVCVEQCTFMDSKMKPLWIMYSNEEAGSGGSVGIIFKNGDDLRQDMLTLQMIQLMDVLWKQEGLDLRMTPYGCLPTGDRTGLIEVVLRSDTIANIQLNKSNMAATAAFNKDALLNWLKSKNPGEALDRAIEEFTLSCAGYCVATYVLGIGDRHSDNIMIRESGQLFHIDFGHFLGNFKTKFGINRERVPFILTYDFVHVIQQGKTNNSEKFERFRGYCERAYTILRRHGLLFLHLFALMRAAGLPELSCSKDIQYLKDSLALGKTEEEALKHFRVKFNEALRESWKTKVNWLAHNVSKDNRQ
Outline: as §1

[5] = tested on: Akt phosphorylated at Ser473 in PC-3 cells; assay: Cellular assay: phosphorylation of Akt at Ser473 in PC-3 cells (MSD ELISA); assay type: cell-based; settings: PC-3 cells, 60 min compound incubation, MSD ELISA, read-out: IC50 pAkt_S473
Outline: as §2

PI3Kβ = molecular target: T5, PI3Kβ (Homo sapiens, UniProt P42338); assay: Enzyme binding assay (KINOMEscan, DiscoveRx); settings: PIK3Cβ_h, read-out: Kd PIK3Cβ_h
T5 construct: purchased DiscoveRx Corporation, San Diego (contract service, KINOMEscan)
Outline: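 Compounds are profiled for binding to the kinase using KINOMEscan. The affinity is then reported as an inhibitor Kd in nanomolar units.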

T3 sequence (P48736 whole entry): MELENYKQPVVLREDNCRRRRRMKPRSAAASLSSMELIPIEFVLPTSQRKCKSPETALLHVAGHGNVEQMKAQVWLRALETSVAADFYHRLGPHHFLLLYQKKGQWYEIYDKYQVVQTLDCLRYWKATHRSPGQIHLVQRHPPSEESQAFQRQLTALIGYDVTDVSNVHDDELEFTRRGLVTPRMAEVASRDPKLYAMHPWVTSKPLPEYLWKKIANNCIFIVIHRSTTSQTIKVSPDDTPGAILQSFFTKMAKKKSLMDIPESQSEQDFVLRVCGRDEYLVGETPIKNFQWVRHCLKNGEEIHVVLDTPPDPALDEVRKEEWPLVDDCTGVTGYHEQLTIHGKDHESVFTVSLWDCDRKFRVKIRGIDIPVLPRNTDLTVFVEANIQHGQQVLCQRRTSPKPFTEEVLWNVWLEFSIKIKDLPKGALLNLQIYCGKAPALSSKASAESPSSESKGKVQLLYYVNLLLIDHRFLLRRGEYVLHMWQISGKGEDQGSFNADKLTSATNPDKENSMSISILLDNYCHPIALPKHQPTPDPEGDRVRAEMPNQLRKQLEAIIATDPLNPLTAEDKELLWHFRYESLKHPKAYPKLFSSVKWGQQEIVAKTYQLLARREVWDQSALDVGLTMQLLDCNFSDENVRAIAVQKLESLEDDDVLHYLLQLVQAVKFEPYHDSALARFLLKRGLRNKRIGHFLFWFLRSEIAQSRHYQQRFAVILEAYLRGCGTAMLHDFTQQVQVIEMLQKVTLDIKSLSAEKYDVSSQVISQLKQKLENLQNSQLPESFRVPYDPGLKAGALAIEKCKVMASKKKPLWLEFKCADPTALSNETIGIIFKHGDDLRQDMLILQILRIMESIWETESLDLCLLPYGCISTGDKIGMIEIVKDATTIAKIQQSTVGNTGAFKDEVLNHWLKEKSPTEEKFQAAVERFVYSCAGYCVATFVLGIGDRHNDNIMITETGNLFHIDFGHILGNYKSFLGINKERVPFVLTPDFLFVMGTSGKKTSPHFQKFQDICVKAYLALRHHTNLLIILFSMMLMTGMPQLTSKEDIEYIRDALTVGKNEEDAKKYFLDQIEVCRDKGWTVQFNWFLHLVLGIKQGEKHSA
T5 sequence (P42338 whole entry): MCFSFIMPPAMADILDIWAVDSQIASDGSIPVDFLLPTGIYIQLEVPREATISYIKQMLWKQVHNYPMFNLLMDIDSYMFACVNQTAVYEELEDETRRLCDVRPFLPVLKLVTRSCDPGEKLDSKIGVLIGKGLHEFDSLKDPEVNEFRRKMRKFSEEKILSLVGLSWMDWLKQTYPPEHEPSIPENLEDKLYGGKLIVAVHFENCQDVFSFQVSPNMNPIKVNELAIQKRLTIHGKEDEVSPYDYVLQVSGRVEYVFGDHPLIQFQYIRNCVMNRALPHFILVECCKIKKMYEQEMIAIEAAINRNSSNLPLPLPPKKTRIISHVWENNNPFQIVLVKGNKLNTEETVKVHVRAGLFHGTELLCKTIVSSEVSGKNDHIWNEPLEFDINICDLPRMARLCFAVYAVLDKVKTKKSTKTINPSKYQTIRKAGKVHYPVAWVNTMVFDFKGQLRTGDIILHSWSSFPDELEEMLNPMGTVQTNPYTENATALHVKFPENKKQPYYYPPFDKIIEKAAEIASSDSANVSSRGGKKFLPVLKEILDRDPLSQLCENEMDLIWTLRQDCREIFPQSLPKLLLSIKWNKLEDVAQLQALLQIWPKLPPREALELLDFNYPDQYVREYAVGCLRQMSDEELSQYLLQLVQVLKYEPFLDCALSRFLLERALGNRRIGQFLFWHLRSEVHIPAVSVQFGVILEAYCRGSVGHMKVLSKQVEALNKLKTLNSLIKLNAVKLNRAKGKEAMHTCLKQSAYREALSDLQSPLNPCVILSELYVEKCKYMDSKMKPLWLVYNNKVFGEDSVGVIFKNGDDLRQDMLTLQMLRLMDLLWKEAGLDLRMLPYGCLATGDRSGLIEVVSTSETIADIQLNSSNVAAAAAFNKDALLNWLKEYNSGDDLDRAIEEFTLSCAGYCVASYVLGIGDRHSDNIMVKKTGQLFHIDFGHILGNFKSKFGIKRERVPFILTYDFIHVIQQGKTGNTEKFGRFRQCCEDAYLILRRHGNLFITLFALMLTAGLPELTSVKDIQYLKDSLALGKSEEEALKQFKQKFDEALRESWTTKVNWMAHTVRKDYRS
T2 sequence (P42336 whole entry): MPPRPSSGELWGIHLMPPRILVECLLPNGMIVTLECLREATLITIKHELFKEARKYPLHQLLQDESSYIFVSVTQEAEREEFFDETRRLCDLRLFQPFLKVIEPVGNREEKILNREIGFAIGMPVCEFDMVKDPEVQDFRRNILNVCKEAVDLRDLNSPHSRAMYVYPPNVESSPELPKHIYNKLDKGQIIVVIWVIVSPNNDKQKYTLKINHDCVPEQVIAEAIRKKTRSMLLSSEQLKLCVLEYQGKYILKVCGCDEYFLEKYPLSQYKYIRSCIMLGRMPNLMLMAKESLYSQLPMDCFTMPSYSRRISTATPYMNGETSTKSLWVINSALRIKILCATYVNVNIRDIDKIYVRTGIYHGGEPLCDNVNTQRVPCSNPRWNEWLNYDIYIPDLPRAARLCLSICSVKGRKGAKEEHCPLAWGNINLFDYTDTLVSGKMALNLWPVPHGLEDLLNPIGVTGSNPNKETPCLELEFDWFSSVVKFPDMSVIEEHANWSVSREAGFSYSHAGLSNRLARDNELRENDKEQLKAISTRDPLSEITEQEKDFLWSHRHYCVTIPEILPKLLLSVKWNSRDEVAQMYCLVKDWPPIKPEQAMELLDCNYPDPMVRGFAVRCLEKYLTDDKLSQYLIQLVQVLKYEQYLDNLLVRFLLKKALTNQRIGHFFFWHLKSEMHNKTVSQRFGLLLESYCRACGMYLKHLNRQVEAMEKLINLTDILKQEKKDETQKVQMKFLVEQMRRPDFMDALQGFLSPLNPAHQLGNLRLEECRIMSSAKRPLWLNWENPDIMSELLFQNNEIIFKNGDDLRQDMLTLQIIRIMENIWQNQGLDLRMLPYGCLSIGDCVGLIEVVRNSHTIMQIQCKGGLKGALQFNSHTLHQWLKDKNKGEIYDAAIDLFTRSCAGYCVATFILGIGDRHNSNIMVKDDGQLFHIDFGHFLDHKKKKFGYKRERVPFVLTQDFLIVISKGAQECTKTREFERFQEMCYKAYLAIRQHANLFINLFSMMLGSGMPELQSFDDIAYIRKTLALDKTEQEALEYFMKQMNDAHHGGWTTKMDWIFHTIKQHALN

Row | SMILES | Kd (kinase enzymes [1]) [nM] | Kd (kinase enzymes [2]) [nM] | Kd (kinase enzymes [3]) [nM] | melting point [°C] | IC50 ([4]; Homo sapiens, PC-3, 1 h) [nM] | Kd (PI3Kδ) [nM] | IC50 ([5]; Homo sapiens, PC-3, 1 h) [nM] | Kd (PI3Kβ) [nM] | IC50 [4] [nM] | IC50 [5] [nM]
1 | CC(Oc1cc(F)cc(F)c1)c1cc(C(=O)NCCO)cc2ncc(N3CCOCC3)nc12 (single isomer, unassigned) [Compound 199] | 28800 | 4900 | 11700 | 140 | 309 | 5490 | > 513 | 68 |  | 
2 | CC(Nc1cc(F)cc(F)c1)c1cncc2ncc(N3CCOCC3)nc12 (centres unmarked) [Compound 153] | 16200 | 5370 | 2690 | 90 | 316 | 1170 | 316 | 8 |  | 
3 | O=C(NCCO)c1cc(NCc2cccc(F)c2)c2nc(N3CCOCC3)cnc2c1 [Compound 230] | 12000 | 7080 | 18200 | 218 | 141 | 759 | 145 | 12 |  | 
4 | CC(Oc1cccc(F)c1)c1cc(C(=O)NCCO)cc2ncc(N3CCOCC3)nc12 (single isomer, unassigned) [Compound 334a] | 26900 | 5370 | 12900 | 136 |  | 1070 | 339 | 19 | 219 | 
5 | CC(Nc1ccc(F)c(F)c1)c1cc(C(=O)NCCCO)cc2ncc(N3CCOCC3)nc12 (centres unmarked) [Compound 280] | > 30200 | 5130 | 11200 | 164 | 158 | 427 | ~275 | 6 |  | 
6 | O=C(NCCO)c1cc(CNc2cc(F)cc(F)c2)c2nc(N3CCOCC3)cnc2c1 [Compound 333] | > 30200 | 5250 | 17400 | 265 | 148 | 7410 | > 513 | 37 |  | 
7 | CC(Nc1cc(F)c(C(F)(F)F)c(F)c1)c1cc(C(=O)NCCO)cc2ncc(N3CCOCC3)nc12 (centres unmarked) [Compound 223] | > 30200 | > 30200 | 13800 | 200 | > 513 | > 30200 | > 513 | 4790 |  | 
8 | CC(Nc1cc(F)cc(F)c1)c1cc(C2=NC(C)(C)CO2)cc2ncc(N3CCOCC3)nc12 (centres unmarked) [Compound 186] | > 30200 | 6310 | 27500 | 80 | 182 | 1780 | 339 | 10 |  | 
9 | CC(Nc1cccc(Br)c1)c1cc(C(=O)N2CCOCC2)cc2ncc(N3CCOCC3)nc12 (centres unmarked) [Compound 124] | 8130 | 1070 | 7760 | 80 | 93 | 575 | 151 | 4 |  | 
10 | CN[C@H]1CCN(C(=O)c2cc(C(C)Oc3ccc(F)c(F)c3)c3nc(N4CCOCC4)cnc3c2)C1 (single isomer, unassigned) [Compound 370a] | > 30200 | 1230 | 2630 | 128 |  | 107 |  | 0.3 | 40 | 107
11 | CNCCNC(=O)c1cc([C@H](C)Oc2cccc(F)c2)c2nc(N3CCOCC3)cnc2c1 [Compound 123a] | 17000 | 10200 | 11500 | 130 |  | 5130 |  | 107 | 380 | > 513
12 | OCCNCc1cc(C2CCCN2c2cc(F)cc(F)c2)c2nc(N3CCOCC3)cnc2c1 (centres unmarked) [Compound 14] | > 10000 | 174 | 229 | 140 | 11 | 36 | 31 | 0.2 |  | 
13 | Cc1cccc(N(C)C(C)c2cc(C(=O)N(C)C)cc3ncc(N4CCOCC4)nc23)c1 (single isomer, unassigned) [Compound 127] | 25700 | 6460 | 21900 | 80 | 331 | 2290 | ~457 | 32 |  | 
14 | CNCCN(C)C(=O)c1cc(C(C)Nc2cc(F)cc(F)c2)c2nc(N3CCOCC3)cnc2c1 (single isomer, unassigned) [Compound 137] | > 30200 | 138 | 501 | 80 |  | 9 |  | 0.1 | 1 | 1
15 | CC(C)NCc1cc(F)cc(N2CCCC2c2cc(C(=O)N(C)C)cc3ncc(N4CCOCC4)nc23)c1 (centres unmarked) [Compound 49] | > 30200 | 2190 | 7590 | 80 | 468 | 933 | > 513 | 16 |  | 
16 | CC(Nc1ccc(F)c(F)c1)c1cc(C(=O)N2CC[C@@H](O)C2)cc2ncc(N3CCOCC3)nc12 (single isomer, unassigned) [Compound 300a] | > 30200 | 1480 | 5490 | 140 | 19 | 191 | 29 | 2 |  | 
17 | CNCCNC(=O)c1cc(C(C)Nc2cc(F)cc(Cl)c2)c2nc(N3CCOCC3)cnc2c1 (centres unmarked) [Compound 147] | > 30200 | 776 | 1150 | 80 | 6 | 129 | 10 | 0.4 |  | 
18 | CC(Nc1cc(F)cc(F)c1)c1cc(C(=O)N(C)CCO)cc2ncc(N3CCOCC3)nc12 (centres unmarked) [Compound 145] | 23400 | 537 | 1860 | 80 | 9 | 102 | ~32 | 1 |  | 
19 | CC(Nc1ccc(F)c(F)c1)c1cc(C(=O)NCCO)cc2ncc(N3CCOCC3)nc12 (centres unmarked) [Compound 279] | 19100 | 5370 | 6460 | 77 | 115 | 372 | 145 | 5 |  | 
20 | CC(Nc1cc(F)cc(F)c1)c1cc(CN2CC3(C2)CS(=O)(=O)C3)cc2ncc(N3CCOCC3)nc12 (single isomer, unassigned) [Compound 160] | 19500 | 813 | 9770 | 229 |  | 575 |  | 2 | 23 | 58
21 | Cc1c(F)cccc1CNc1cc(C(=O)NCCN(C)C)cc2ncc(N3CCOCC3)nc12 [Compound 383] | 7080 | 1230 | 7940 | 172 | 6 | 234 | 23 | 1 |  | 
22 | NC1CCN(C(=O)c2cc(C3CCCN3c3cc(F)cc(F)c3)c3nc(N4CCOCC4)cnc3c2)CC1 (centres unmarked) [Compound 75] | > 30200 | 30 | 4 | 80 | 1 | 2 | 2 | 0.1 |  | 
